Measured values from patent US4122189A, “Medicine for renal diseases” (priority 1976, dated 1978).

How the values were obtained:
[1] = system: patients having excessive urinary protein; conditions: 150 to 1800 mg/day, with or without additional medicines
Method: When used in combination, the additional medicines were dosed in the amount usual for each of such additional medicines.
The amount of urine protein was measured for the clinical tests. The elimination or remarkable degree of reduction of urine protein was considered to be effective.
The non-steroid anti-inflammatory agents such as Ibuprofen, Indomethacin, Azapropazone, and steroids such as Predonizolone and antibiotics such as Cephalexin, methyl chlorophenyl iso-oxazolyl penicillin were used as the additional medicines.

[2] = system: hetero antikidney serum nephritis; test: Therapy for hetero antikidney serum nephritis; assay type: in vivo, Wister type male rats; conditions: 1000 mg/kg/day oral
Method: Antikidney serum (rabbit) prepared in accordance with the Heymann method was intravenously injected into tail vein at a dose of 0.5 ml per 100 g of rat at one time per day.
In Table 3, the symbols for tissue observation mean the following conditions of tissues.
A: proliferation of polymorphs of glomeruli
C: thickning of the basement membrane of the glomerular capillaries
D: obliteration of the glomerular capillary loops
F: exudate in Bowman's subcapsule space
G: thickning of Bowman's capsule
H: crescent formation of glomeruli
I: proteinaeous fluid in the tubli
J: swelling of tublar epithelium
K: proliferation of interstitial tissue cells
In Table 4, the degree of lesions were rated as follows:
0: no lesion of tissue is found;
0.5: slight lesion of tissue is found;
1: clear sporadic or slight lesion of tissue is found;
3: inflamed or clear lesion of tissue is found.
The average of ratings for 5 rats in each group is shown.
The level of significance was considered as the same with those of Table 1.

mouse = test: Toxicity test (LD50); assay type: in vivo, ddY type mice; conditions: mice, oral and intraperitoneal
Method: The test was carried out by the oral dose and the intraperitoneal injection of each solution in 10 ddY type male mice and 10 ddY femal mice. The results after 72 hours from the administration were observed. Probit analysis was used for statistical treatment of mortality.

Aminonucleoside nephrose = test: Therapy for Aminonucleoside nephrose (urine and blood biochemical observations); assay type: in vivo, SD type male rats; conditions: 1000 mg/kg/day oral, 10 days
Method: SD type male rats (weight about 100 g) were fed in each individual room of a metabolism cage under the free water and feed supply.
The rats were classified as the normal group for eight rats, the renal disease group for eight rats and the therapy group for eight rats.
0.3% Aminoucleoside aqueous solution (hereinafter referring to as AN) was administrated by intramuscular injection at a dose of 0.3 ml per 100 g of the rat.
The administration was continued from the 1st day to the 14th day at one time per day.
The data in Tables are average value for eight rats in each group.
The difference between the renal disease group and the therapy group was significant. The symbol * means the existence of significant difference in 5% of the level of significance and the symbol (*) means the existence of significant difference in 5 to 1% of the level of significance. The symbol -- means non-significant difference.

[3] = average lesion rating 0-3 (3 inflamed or clear), normal 0, renal disease group 1.1, significance *
[4] = average lesion rating 0-3 (3 inflamed or clear), normal 0, renal disease group 1.7, significance *

## C[S+](C)CCC(N)C(=O)O (stereo not shown) [Methyl methionine sulfonium chloride]
[1]
  effective cases (elimination or remarkable reduction of urine protein): 32 cases among 45 patients
[2]; 9 days, normal 6.3, renal disease group 121, non-significant
  Urine urea: 104 mg/day
[2]; 9 days, normal 23, renal disease group 25, non-significant
  Urea nitrogen in blood: 24 mg/dL
[2]; average lesion rating 0-3 (3 inflamed or clear), normal 0, renal disease group 0, non-significant
  Observation of tissue F: exudate in Bowman's subcapsule space: 0
[2]; average lesion rating 0-3 (3 inflamed or clear), normal 0, renal disease group 0.2, non-significant
  Observation of tissue K: proliferation of interstitial tissue cells: 0.3
[2]; [3]
  Observation of tissue B: thrombus formation: 0.1
  Observation of tissue G: thickning of Bowman's capsule: 0
  Observation of tissue H: crescent formation of glomeruli: 0
[2]; [4]
  Observation of tissue C: thickning of the basement membrane of the glomerular capillaries: 0.4
  Observation of tissue D: obliteration of the glomerular capillary loops: 0.3
[2]; average lesion rating 0-3 (3 inflamed or clear), normal 0, renal disease group 2.2, significance *
  Observation of tissue E: anemia: 0.1
[2]; average lesion rating 0-3 (3 inflamed or clear), normal 0.5, renal disease group 1.6, non-significant
  Observation of tissue J: swelling of tublar epithelium: 1.3
[2]; average lesion rating 0-3 (3 inflamed or clear), normal 0.6, renal disease group 1.8, significance (*)
  Observation of tissue I: proteinaeous fluid in the tubli: 0.8
[2]; average lesion rating (0 none, 0.5 slight, 1 clear sporadic or slight, 3 inflamed or clear), normal 0, renal disease group 1.4, significance (*)
  Observation of tissue A: proliferation of polymorphs of glomeruli: 0.5
mouse
  toxicity: low toxicity
Aminonucleoside nephrose; normal 0.1, renal disease group 2.4, significance *
  Urine albumin: 1.6 g/dL
Aminonucleoside nephrose; normal 0.6, renal disease group 5.2, significance *
  Urine protein: 4.0 g/dL
Aminonucleoside nephrose; normal 2.60, renal disease group 0.49, significance *
  Serum albumin: 1.25 g/dL
Aminonucleoside nephrose; normal 5.1, renal disease group 5.4, non-significant
  Serum K^+: 5.6 m Eq/l
Aminonucleoside nephrose; normal 6.48, renal disease group 3.60, significance *
  Serum total protein: 4.47 g/dL
Aminonucleoside nephrose; normal 6.6, renal disease group 196, significance *
  Urine albumin: 106 mg/day
Aminonucleoside nephrose; normal 6.7, renal disease group 6.5, significance (*)
  Urine pH: 6.2
Aminonucleoside nephrose; normal 9.4, renal disease group 8.5, significance (*)
  Urine amount: 6.9 mL/day
Aminonucleoside nephrose; normal 25.2, renal disease group 44.8, significance *
  Serum urea nitrogen: 23.8 mg/dL
Aminonucleoside nephrose; normal 54, renal disease group 441, significance *
  Urine protein: 294 mg/day
Aminonucleoside nephrose; normal 84.3, renal disease group 277, significance *
  Serum cholesterol: 149 mg/dL
Aminonucleoside nephrose; normal 134, renal disease group 135, non-significant
  Serum Na^+: 134 m Eq/l
Aminonucleoside nephrose; normal 160, renal disease group 54, significance *
  Urine Na: 109 m Eq/l
Aminonucleoside nephrose; normal 169, renal disease group 135, non-significant
  Serum glycose: 138 mg/dL
Aminonucleoside nephrose; normal 180, renal disease group 196, significance *
  Weight: 176 g
Aminonucleoside nephrose; normal 230, renal disease group 204, non-significant
  Urine K: 210 m Eq/l
